What all share (format): cell-based
Assay [1] concerns the target T1, human CCR6 (Homo sapiens, UniProt P51684).
T1 sequence (P51684 1-374): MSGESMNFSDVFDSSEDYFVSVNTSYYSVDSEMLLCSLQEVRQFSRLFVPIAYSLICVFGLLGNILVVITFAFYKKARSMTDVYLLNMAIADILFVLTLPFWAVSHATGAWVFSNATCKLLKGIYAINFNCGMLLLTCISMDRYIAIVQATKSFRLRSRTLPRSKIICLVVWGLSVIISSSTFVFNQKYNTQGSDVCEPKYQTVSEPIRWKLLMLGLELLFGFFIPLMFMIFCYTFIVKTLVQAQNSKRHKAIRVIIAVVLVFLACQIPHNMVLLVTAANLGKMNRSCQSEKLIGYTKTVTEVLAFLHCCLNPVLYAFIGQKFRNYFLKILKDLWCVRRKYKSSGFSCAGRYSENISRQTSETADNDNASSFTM
In words: Human CCR6-Cre reporter assay. On the set-up: The second construct contained the open reading frame of human CCR6 in the pUNO1 backbone; host or cells: 293 FT cells. The note with it: relative -LogIC50; transfected 293 FT cells, 6 μM Forskolin, 6 nM CCL20, luciferase readout, 5h. Here is the method: 293 FT cells were transfected with 2 constructs using TransIT-293 (Mirus). The first construct (pGL4.29, Promega) expressed the luciferase reporter gene luc2P in response to the binding of cAMP-induced CREB to the CRE element in its promoter. The second construct contained the open reading frame of human CCR6 in the pUNO1 backbone under the control of an enhanced CMV promoter (In VivoGen). 48h after transfection, cells were harvested and diluted to 750,000 cells/ml in culture medium (DMEM, 10% FBS, 1× pen/strep (Gibco 15140)). Compounds were 2.5-fold serially diluted in DMSO. Further dilutions were made in assay medium (DMEM, 10% FBS, 1× pen/strep, 6 μM Forskolin, 6 nM CCL20). 4 μl of the compound solution was added to a white MW384 plate, followed by 20 μl of the cell suspension. Final DMSO concentration in the assay was 0.1%. The MW384 plate was placed in an incubator at 37° C., 5% CO2 for 5h. Luciferase activity was determined by addition of 24 μl of a 2.5× diluted BriteLite luciferase solution (Perkin Elmer), followed by luminescence measurement using a VICTOR Plate reader (Perkin Elmer). […] The relative-LogIC50 was determined with GraphPad Prism 9 using a four-parameter dose-response model.

For assay [2], the target named is T1, human CCR6. The experiment in a line: CHO-K1 CCR6 chemotaxis assay towards CCL20. The note with it: relative -LogIC50; CHO-K1 cells overexpressing human CCR6, 100 ng/ml CCL20, Transwell, 4 h. An excerpt:
Cells overexpressing human CCR6 were used in the chemotaxis assay (DiscoverX, CAMP Hunter™ CHO-K1 CCR6 Gi Cell Line). Growth medium of these cells consisted of DMEM/F12, non-essential Amino acids (1×NEAA, Gibco 11140050), 10% FBS and 1× pen/strep (Gibco 15140). For the chemotaxis assay, Corning Transwell plates were used with a pore size of 8 μm (Corning 351164). Cells were harvested using trypsin and diluted to 4*10^6 cells/ml in chemotaxis medium (DMEM, 0.25% BSA, pen/strep). Compounds were four-fold serially diluted in DMSO. Further dilutions were made in chemotaxis medium. Cells were incubated with test compounds for 30 min at 37° C. prior to initiation of the assay (2*10^6 cells/ml). Final DMSO concentration in the assay was 0.2%. Wells of the Transwell plates were filled with 200 μl chemotaxis medium containing 100 ng/ml CCL20 (R&D systems 360-MP). 50 μl of the cell/compound suspension was added to the inserts of the Transwell plates (100,000 cells/insert). The Transwell plates were placed in an incubator at 37° C., 5% CO2 for 4 h. After 4 h, the number of migrated cells was quantified using CellTiter Glo (Promega). Percentage inhibition values were calculated based on the low and high signal obtained with 0.2% DMSO in chemotaxis medium without and with CCL20, respectively. The relative-LogIC50 was determined with GraphPad Prism 9 using a four-parameter dose-response model.

In assay [3] the test system is Human CD4+ T cells. The experiment in a line: CD4+ T cell chemotaxis assay towards CCL20. The note with it: relative -LogIC50, 150 ng/ml CCL20, Transwell, 3 h. An excerpt:
Human CD4+ T cells were isolated from buffy coats of healthy donors using a CD4+ T Cell Isolation Kit (Miltenyi Biotec130-096-533). Isolated T cells were stimulated overnight with anti-CD3 and anti-CD28 antibodies (Biolegend 300314/302934) in growth medium (RPMI1640, 10% heat-inactivated FBS, 1× pen/strep (Gibco 15140)). For the chemotaxis assay, Corning Transwell plates were used with a pore size of 5 μm (Corning 3388). T cells were counted and diluted to 6*10^6 cells/ml in chemotaxis medium (RPMI1640, 1% BSA, pen/strep). Compounds were four-fold serially diluted in DMSO. Further dilutions were made in chemotaxis medium. Cells were incubated with test compounds for 30 min at 37° C. prior to initiation of the assay (3*10^6 cells/ml). Final DMSO concentration in the assay was 0.2%. Wells of the Transwell plates were filled with 200 μl chemotaxis medium containing 150 ng/ml CCL20 (R&D systems 360-MP). 50 μl of the cell/compound suspension was added to the inserts of the Transwell plates (150,000 cells/insert). The Transwell plates were placed in an incubator at 37° C., 5% CO2 for 3 h. After 3 h, the number of migrated cells was quantified using CellTiter Glo (Promega). Percentage inhibition values were calculated based on the low and high signal obtained with 0.2% DMSO in chemotaxis medium without and with CCL20, respectively. The relative −LogIC50 was determined with GraphPad Prism 9 using a four-parameter dose-response model.

Usually IC50 stands for the concentration needed to halve the response being measured. Read a low IC50 as greater potency in that assay.

As for `Cc1cnc2ccc(-c3ccc(S(=O)(=O)N4CCC(Nc5ccc(C6(C(F)(F)F)CC6)cc5)CC4)cc3)cn12` [Example 3, 1-(4-{3-methylimidazo[1,2-a]pyridin-6-yl}benzenesulfonyl)-N-{4-[1-(trifluoromethyl)cyclopropyl]phenyl}piperidin-4-amine], the IC50 in assay [1] is 0.0794 µM; in assay [2], 0.0631 µM.

Turning to `CNC(=O)c1cccc(-c2ccc(S(=O)(=O)N3CCC(Nc4ccc(C5(C(F)(F)F)CC5)cc4)CC3)cc2)c1` [Example 4, N-methyl-4′-{[4-({4-[1-(trifluoromethyl)cyclopropyl]phenyl}Amino)piperidin-1-yl]sulfonyl}-[1,1′-biphenyl]-3-carboxamide], the IC50 is 0.0794 µM in assay [1] and 0.0251 µM in assay [2]. For the compound `CNC(=O)c1ccc(-c2ccc(S(=O)(=O)N3CCC(Nc4ccc(C5(C(F)(F)F)CC5)cc4)CC3)cc2)cc1` [Example 5, N-methyl-4′-{[4-({4-[1-(trifluoromethyl)cyclopropyl]phenyl}Amino)piperidin-1-yl]sulfonyl}-[1,1′-biphenyl]-4-carboxamide], the 50% inhibitory concentration (IC50) in assay [1] and in assay [2] was 0.158 µM each time. For the compound `Cc1c[nH]c2ncc(-c3ccc(S(=O)(=O)[C@H]4CC[C@H](Nc5ccc(C6(C(F)(F)F)CC6)cc5)CC4)cc3)cc12` [Example 21, N-[(trans)-4-(4-{3-methyl-1H-pyrrolo[2,3-b]pyridin-5-yl}benzenesulfonyl)cyclohexyl]-4-[1-(trifluoromethyl)cyclopropyl]aniline], the IC50 in assay [3] is 0.00158 µM; in assay [1], 0.0631 µM. On to `Cc1n[nH]c2ncc(-c3ccc(S(=O)(=O)[C@H]4CC[C@H](Nc5ccc(C6(C(F)(F)F)CC6)cc5)CC4)cc3)cc12` [Example 22, N-[(trans)-4-(4-{3-methyl-1H-pyrazolo[3,4-b]pyridin-5-yl}benzenesulfonyl)cyclohexyl]-4-[1-(trifluoromethyl)cyclopropyl]aniline], for which the values for the IC50 in assay [3] and in assay [1] were 0.00251 µM and 0.1 µM, respectively. The matching figures for `CC(C)c1nnc2ccc(-c3ccc(S(=O)(=O)[C@H]4CC[C@H](Nc5ccc(C6(C#N)CC6)cn5)CC4)cc3)cn12` [Example 30, 1-(6-{[(trans)-4-{4-[3-(propan-2-yl)-[1,2,4]triazolo[4,3-a]pyridin-6-yl]benzenesulfonyl}cyclohexyl]amino}pyridin-3-yl)cyclopropane-1-carbonitrile]: 0.251 µM and 0.2 µM. Consider `CC(C)c1nnc2ccc(-c3ccc(S(=O)(=O)N4CCC(Nc5ccc(C6(C#N)CC6)cn5)CC4)cc3)cn12` [Example 31, 1-{6-[(1-{4-[3-(propan-2-yl)-[1,2,4]triazolo[4,3-a]pyridin-6-yl]benzenesulfonyl}piperidin-4-yl)amino]pyridin-3-yl}cyclopropane-1-carbonitrile], for which the IC50 is 0.0794 µM in assay [3] and 0.2 µM in assay [1]. For `Cc1cc(-c2ccc(S(=O)(=O)N3CCC(Nc4ccc(C5(C#N)CC5)cn4)CC3)cc2)cn2c(C(C)C)nnc12` [Example 32, 1-{6-[(1-{4-[8-methyl-3-(propan-2-yl)-[1,2,4]triazolo[4,3-a]pyridin-6-yl]benzenesulfonyl}piperidin-4-yl)amino]pyridin-3-yl}cyclopropane-1-carbonitrile], the IC50 in assay [3] was 0.126 µM; in assay [1], 0.2 µM.

Take `N#CC1(c2ccc(NC3CCN(S(=O)(=O)c4ccc(-c5ccc6n[nH]c(=O)n6c5)cc4)CC3)nc2)CC1` [Example 35, 1-(6-{[1-(4-{3-oxo-2H,3H-[1,2,4]triazolo[4,3-a]pyridin-6-yl}benzenesulfonyl)piperidin-4-yl]amino}pyridin-3-yl)cyclopropane-1-carbonitrile]: the IC50 in assay [3] is 1.58 µM; in assay [1], 0.398 µM. For the compound `CC(C)c1nnc2ccc(-c3ccc(S(=O)(=O)N4CCC(Nc5ccc(C6(C(F)(F)F)CC6)cn5)CC4)cc3)cn12` [Example 36, N-(1-{4-[3-(propan-2-yl)-[1,2,4]triazolo[4,3-a]pyridin-6-yl]benzenesulfonyl}piperidin-4-yl)-5-[1-(trifluoromethyl)cyclopropyl]pyridin-2-amine], the values for the IC50 in assay [3] and in assay [1] were 0.00316 µM and 0.0316 µM, respectively. Consider `O=S(=O)(c1ccc(-c2ccc3nccn3c2)cc1)N1CCC(Nc2ccc(C3(C(F)(F)F)CC3)cn2)CC1` [Example 37, N-[1-(4-{imidazo[1,2-a]pyridin-6-yl}benzenesulfonyl)piperidin-4-yl]-5-[1-(trifluoromethyl)cyclopropyl]pyridin-2-amine], for which the results for the IC50 in assay [3] and in assay [1] were 0.00501 µM and 0.1 µM, respectively. Take `CC(C)c1nnc2cnc(-c3ccc(S(=O)(=O)N4CCC(Nc5ccc(C6(C(F)(F)F)CC6)cc5)CC4)cc3)cn12` [Example 41, 1-{4-[3-(propan-2-yl)-[1,2,4]triazolo[4,3-a]pyrazin-6-yl]benzenesulfonyl}-N-{4-[1-(trifluoromethyl)cyclopropyl]phenyl}piperidin-4-amine]: the IC50 was 0.00398 µM in assay [3] and 0.0631 µM in assay [1]. The matching figures for `Cc1nnc2ccc(-c3ccc(S(=O)(=O)N4CCC(Nc5ccc(C6(C(F)(F)F)CC6)cc5)CC4)cc3)cn12` [Example 42, 1-(4-{3-methyl-[1,2,4]triazolo[4,3-a]pyridin-6-yl}benzenesulfonyl)-N-{4-[1-(trifluoromethyl)cyclopropyl]phenyl}piperidin-4-amine]: 0.00631 µM and 0.126 µM. `O=c1[nH]nc2ccc(-c3ccc(S(=O)(=O)N4CCC(Nc5ccc(C6(C(F)(F)F)CC6)cc5)CC4)cc3)cn12` [Example 43, 6-(4-{[4-({4-[1-(trifluoromethyl)cyclopropyl]phenyl}amino)piperidin-1-yl]sulfonyl}phenyl)-2H,3H-[1,2,4]triazolo[4,3-a]pyridin-3-one]: the results for the IC50 in assay [3] and in assay [1] were 0.0126 µM and 0.1 µM, respectively. `Cc1nnc2ccc(-c3ccc(S(=O)(=O)N4CCC(Nc5ccc(C6(C(F)(F)F)CC6)cn5)CC4)cc3)cn12` [Example 47, N-[1-(4-{3-methyl-[1,2,4]triazolo[4,3-a]pyridin-6-yl}benzenesulfonyl)piperidin-4-yl]-5-[1-(trifluoromethyl)cyclopropyl]pyridin-2-amine]: the midpoint of inhibition in assay [3], the IC50, lay at 0.0158 µM.

The record behind these values is US20260034125A1, “N-PHENYL-1-(PHENYLSULFONYL)PIPERIDIN-4-AMINE DERIVATIVES AS CCR6 INHIBITORS” (priority 2023, published 2026).
